Literature values as cited in US20150024055A1, “ENHANCED IMMEDIATE RELEASE FORMULATIONS OF TOPIRAMATE” (Supernus Pharmaceuticals, Inc., priority 2006, published 2015).

How the values were obtained:
[1] = in vivo

Compound: CC1(C)O[C@@H]2[C@@H](CO[C@@]3(COS(N)(=O)=O)OC(C)(C)O[C@@H]23)O1 [Topiramate]
- solubility in organic solvents (acetone, dimethylsulfoxide and ethanol): soluble
- solubility in alkaline solutions (alkaline solutions containing sodium hydroxide or sodium phosphate): soluble
- solubility of topiramate in water (water, room temperature): about 9.8 mg/ml
- time to reach peak plasma levels [1]: about two
